From US20080132505A1 (Glaxo Group Limited, priority 2004, published 2008)

Biological target: human cannabinoid CB2 receptor (Homo sapiens, UniProt P34972)
Assay: Cannabinoid CB2 receptor agonist activity (yeast reporter assay, FDGlu fluorescence)
Format: cell-based
Conditions: for EC50: EC50 value at the cloned human cannabinoid CB2 receptor; for Emax: read-out: efficacy value (Emax relative to HU210) at the cloned human cannabinoid CB2 receptor
Procedure, shortened: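 Agonist-driven growth was read as fluorescein fluorescence (ex 485, em 535 nm) from FDGlu cleavage after 24 h at 30 °C, using yeast strain MMY23 carrying human CB2 and chimeric Gpa1/Gαi3. Medium had 10 mM 3-aminotriazole, pH 7.0; four-parameter fits gave EC50, with Emax and EMR versus HU210.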

Chain of human cannabinoid CB2 receptor (P34972 whole entry): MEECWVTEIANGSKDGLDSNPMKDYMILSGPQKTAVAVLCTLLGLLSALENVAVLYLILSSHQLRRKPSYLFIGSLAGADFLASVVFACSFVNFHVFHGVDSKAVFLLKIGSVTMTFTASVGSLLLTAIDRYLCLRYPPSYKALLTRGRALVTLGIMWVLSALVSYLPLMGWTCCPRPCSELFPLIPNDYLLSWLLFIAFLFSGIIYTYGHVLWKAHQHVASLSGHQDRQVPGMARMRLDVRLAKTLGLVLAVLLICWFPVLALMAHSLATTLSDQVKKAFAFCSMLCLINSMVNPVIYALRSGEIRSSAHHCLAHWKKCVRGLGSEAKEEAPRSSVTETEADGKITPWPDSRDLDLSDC

Compound | EC50 | Emax
O=C(NCC1CCOCC1)c1cnc(Nc2ccc(Cl)c(Cl)c2)nc1C(F)(F)F [Example 250, 2-(3,4-Dichlorophenylamino)-4-trifluoromethylpyrimidine-5-carboxylic acid (tetrahydro-pyran-4-ylmethyl)-amide] | 20 to 300 nM | > 50%
O=C(NCC1CCCC1)c1cnc(Nc2ccccc2)nc1C(F)(F)F [Example 251, 2-(Phenylamino)-4-trifluoromethyl-pyrimidine-5-carboxylic acid cyclopentylmethyl-amide] | 20 to 300 nM | > 50%
O=C(NCC1CCC1)c1cnc(Nc2cccc(C(F)(F)F)c2F)nc1C(F)(F)F [Example 252, 2-(2-Fluoro-3-trifluoromethyl-phenylamino)-4-trifluoromethyl-pyrimidine-5-carboxylic acid cyclobutylmethyl-amide] | 20 to 300 nM | > 50%
Cc1cc(Cl)ccc1Nc1ncc(C(=O)NCC2CCC2)c(C(F)(F)F)n1 [Example 253, 2-(2-Methyl-4-chloro-phenylamino)-4-trifluoromethyl-pyrimidine-5-carboxylic acid cyclobutylmethyl-amide] | 20 to 300 nM | > 50%
O=C(NCC1CCOCC1)c1cnc(Nc2ccc(Br)cc2C(F)(F)F)nc1C(F)(F)F [Example 254, 2-(2-Trifluoromethyl-4-bromo-phenylamino)-4-trifluoromethyl-pyrimidine-5-carboxylic acid (tetrahydro-pyran-4-ylmethyl)-amide] | 20 to 300 nM | > 50%
O=C(NCC1CCSCC1)c1cnc(Nc2cccc(Cl)c2)nc1C(F)(F)F [Example 255, 2-(3-Chlorophenylamino)-4-trifluoromethyl-pyrimidine-5-carboxylic acid (tetrahydrothiopyran-4-ylmethyl) amide] | 20 to 300 nM | > 50%
O=C(NCC1CCSCC1)c1cnc(Nc2ccc(Cl)cc2Cl)nc1C(F)(F)F [Example 256, 2-(2,4-Dichlorophenylamino)-4-trifluoromethyl-pyrimidin-5-carboxylic acid (tetrahydrothiopyran-4-ylmethyl) amide] | 20 to 300 nM | > 50%
O=C(NCC1CCC1)c1cnc(Nc2ccccc2Cl)nc1C(F)(F)F [Example 257, 2-(2-Chlorophenylamino)-4-trifluoromethyl-pyrimidine-5-carboxylic acid cyclobutylmethyl-amide] | 300 to 1000 nM | > 50%
O=C(NCC1CCC1)c1cnc(Nc2cc(F)cc(C(F)(F)F)c2)nc1C(F)(F)F [Example 258, 2-(3-Fluoro-5-trifluoromethylphenylamino)-4-trifluoromethyl-pyrimidine-5-carboxylic acid cyclobutylmethyl-amide] | 300 to 1000 nM | > 50%
Cc1ccc(Cl)cc1Nc1ncc(C(=O)NCC2CCC2)c(C(F)(F)F)n1 [Example 259, 2-(5-Chloro-2-methylphenylamino)-4-trifluoromethyl-pyrimidine-5-carboxylic acid cyclobutylmethyl-amide] | 300 to 1000 nM | > 50%
O=C(NCc1ccccc1)c1cnc(Nc2cccc(Cl)c2)nc1C(F)(F)F [Example 266, 2-(3-Chlorophenylamino)-4-trifluoromethylpyrimidine-5-carboxylic acid benzyl-amide] | 20 to 300 nM | > 50%
O=C(NCc1ccncc1)c1cnc(Nc2cccc(Cl)c2)nc1C(F)(F)F [Example 267, 2-(3-Chlorophenylamino)-4-trifluoromethylpyrimidine-5-carboxylic acid (pyridin-4-ylmethyl)amide] | 20 to 300 nM | 
CN(Cc1ccccc1)C(=O)c1cnc(Nc2cccc(Cl)c2)nc1C(F)(F)F [Example 268, 2-(3-Chlorophenylamino)-4-trifluoromethylpyrimidine-5-carboxylic acid N-benzyl-N-methylamide] | 20 to 300 nM | 
COc1ccc(CNC(=O)c2cnc(Nc3cccc(Cl)c3)nc2C(F)(F)F)cc1 [Example 269, 2-(3-Chlorophenylamino)-4-trifluoromethylpyrimidine-5-carboxylic acid 4-methoxybenzyl-amide] | 20 to 300 nM | > 50%
